Measured values as given in PubChem BioAssay AID266 (DTP/NCI, 2004).
Several values for one entry are separate records, joined by “and”; a condition that tells them apart may be missing. Identical values can stand only once. Results filed as inconclusive are left out.

Test system: Nude mice, LX-1 lung xenograft intrarenal, tumor weight T/C
Assay: NCI In Vivo Anticancer Drug Screen. Data for tumor model Human Lung LX-1 Xenograft (intrarenal inoculation) in NU/NU BALB/C (nude) mice
Conditions: endpoint: mean tumor weight change, higher = larger tumour
Protocol: The antitumor activity of compounds was measured in mice bearing transplantable tumors. Survival or tumor size were measured and the results are expressed as the measurement made in the treated group (T) divided by the measurement made in the vehicle treated control group (C). The tumor model used in this assay is Human Lung LX-1 Xenograft (intrarenal inoculation) in NU/NU BALB/C (nude) mice

[1] = dose: 300.0 mg/kg/injection, schedule: Q04DX003 (sc), vehicle: Klucel (hydroxypropylcellulose) (HPC)
[2] = dose: 600.0 mg/kg/injection, schedule: Q04DX003 (sc), vehicle: Klucel (hydroxypropylcellulose) (HPC)
[3] = dose: 2400.0 mg/kg/injection, schedule: Q04DX003 (sc), vehicle: Klucel (hydroxypropylcellulose) (HPC)

Cc1cc(NCCCCCCCCNc2cc(C)nc3cc(N(C)C)ccc23)c2ccc(N(C)C)cc2n1
T/C (dose: 37.5 mg/kg/injection, schedule: Q01DX010 (sc), vehicle: distilled water + Tween-80 + alcohol): 51 % of control | T/C (dose: 75.0 mg/kg/injection, schedule: Q04DX003 (sc), vehicle: distilled water + Tween-80 + alcohol): 64 % of control | T/C (dose: 150.0 mg/kg/injection, schedule: Q04DX003 (sc), vehicle: distilled water + Tween-80 + alcohol): 46 % of control | T/C (dose: 300.0 mg/kg/injection, schedule: Q04DX003 (sc), vehicle: distilled water + Tween-80 + alcohol): 13 % of control

CO[C@H](/C(C)=C/C=C/C(C)=C/c1coc(C)n1)[C@H](C)[C@H]1C[C@@H](O)[C@@]2(C)O[C@H]2/C=C/[C@@H](C)[C@@H]2C[C@@H](CC(=O)O2)C[C@H]2O[C@@H]2C(=O)O1
T/C (dose: 0.13 mg/kg/injection, schedule: Q04DX003 (sc), vehicle: Klucel (hydroxypropylcellulose) (HPC)): 105 % of control | T/C (dose: 0.25 mg/kg/injection, schedule: Q04DX003 (sc), vehicle: Klucel (hydroxypropylcellulose) (HPC)): 95 % of control

CN(C)N=Nc1ccc(C(N)=O)cc1
T/C (dose: 200.0 mg/kg/injection, schedule: Q04DX003 (ip), vehicle: saline with Tween-80): -20 % of control and -13 % of control

CCCCCCCCNc1cc2c3c(c1)CCCN3CCC2
T/C (dose: 6.0 mg/kg/injection, schedule: Q04DX003 (sc), vehicle: Klucel (hydroxypropylcellulose) (HPC)): 155 % of control | T/C (dose: 12.0 mg/kg/injection, schedule: Q04DX003 (sc), vehicle: Klucel (hydroxypropylcellulose) (HPC)): 118 % of control | T/C (dose: 24.0 mg/kg/injection, schedule: Q04DX003 (sc), vehicle: Klucel (hydroxypropylcellulose) (HPC)): 106 % of control

Cc1ccc(S(=O)(=O)NC(=O)C2C(=O)CC3(CCCCC3)CC2=O)cc1
T/C [1]: 122 % of control | T/C [2]: 101 % of control | T/C [3]: 84 % of control

C/C(=C\c1ccccc1)[N+](=O)[O-]
T/C (dose: 50.0 mg/kg/injection, schedule: Q01DX010 (sc), vehicle: Klucel (hydroxypropylcellulose) (HPC)): 96 % of control | T/C (dose: 100.0 mg/kg/injection, schedule: Q01DX010 (sc), vehicle: Klucel (hydroxypropylcellulose) (HPC)): 97 % of control | T/C (dose: 200.0 mg/kg/injection, schedule: Q01DX010 (sc), vehicle: Klucel (hydroxypropylcellulose) (HPC)): 15 % of control

Nc1nc(N)c(N=O)c(Nc2ccc(Br)cc2)n1
T/C (dose: 300.0 mg/kg/injection, schedule: Q04DX003 (sc), vehicle: saline with Tween-80): 124 % of control | T/C (dose: 600.0 mg/kg/injection, schedule: Q04DX003 (sc), vehicle: saline with Tween-80): 95 % of control | T/C (dose: 1200.0 mg/kg/injection, schedule: Q04DX003 (sc), vehicle: saline with Tween-80): 229 % of control | T/C (dose: 2400.0 mg/kg/injection, schedule: Q04DX003 (sc), vehicle: saline with Tween-80): 93 % of control

O=C(O)C1(NO)CCCCC1
T/C (dose: 200.0 mg/kg/injection, schedule: Q04DX003 (sc), vehicle: Klucel (hydroxypropylcellulose) (HPC)): 81 % of control | T/C (dose: 400.0 mg/kg/injection, schedule: Q04DX003 (sc), vehicle: Klucel (hydroxypropylcellulose) (HPC)): 85 % of control | T/C (dose: 800.0 mg/kg/injection, schedule: Q04DX003 (sc), vehicle: Klucel (hydroxypropylcellulose) (HPC)): 81 % of control | T/C (dose: 1600.0 mg/kg/injection, schedule: Q04DX003 (sc), vehicle: Klucel (hydroxypropylcellulose) (HPC)): 77 % of control

CCCNC1=C(C)C(=O)C2=C(C1=O)[C@H](COC(N)=O)[C@]1(OC)[C@@H]3N[C@@H]3CN21
T/C (dose: 12.0 mg/kg/injection, schedule: Q04DX003 (sc), vehicle: saline + alcohol): 52 % of control | T/C (dose: 24.0 mg/kg/injection, schedule: Q04DX003 (sc), vehicle: saline + alcohol): 8 % of control

O=NN(CCCl)C(=O)NCCO
T/C (dose: 3.13 mg/kg/injection, schedule: Q04DX003 (sc), vehicle: water): 113 % of control | T/C (dose: 6.25 mg/kg/injection, schedule: Q04DX003 (sc), vehicle: water): 26 % of control | T/C (dose: 12.5 mg/kg/injection, schedule: Q04DX003 (sc), vehicle: water): -25 % of control

CC1=C/C(O)CC(=O)Cc2nc(co2)C(=O)N2CCC=C2C(=O)OC(C(C)C)C(C)/C=C\C(=O)NC/C=C\1 (stereo not given)
T/C [1]: 102 % of control | T/C [2]: 90 % of control | T/C (dose: 1200.0 mg/kg/injection, schedule: Q04DX003 (sc), vehicle: Klucel (hydroxypropylcellulose) (HPC)): 69 % of control | T/C [3]: 82 % of control

CC[C@](C)(O)C(=O)O[C@H]1C(=O)O[C@@H]2C[C@H]3C(C)=CC(=O)[C@@H](O)[C@]3(C)[C@H]3[C@@]4(O)OC[C@]32[C@@H]1[C@@H](C)[C@H]4O
T/C (dose: 0.5 mg/kg/injection, schedule: Q01DX010 (sc), vehicle: Klucel (hydroxypropylcellulose) (HPC)): 38 % of control | T/C (dose: 1.0 mg/kg/injection, schedule: Q01DX010 (sc), vehicle: Klucel (hydroxypropylcellulose) (HPC)): 17 % of control
